Assays:
[1] = biological target: T1, PDE5A1 (Homo sapiens, UniProt O76074); experiment: Inhibition of type 5 phosphodiesterase (PDE5) activity, modified SPA test with human platelet lysate; format: biochemical; settings: 0.5 μM cGMP, read-out: PDE5A1 inhibitory values [measured as −log IC50 (mol/l)] (converted)
T1 construct: from tissue; host or cells: human platelets from fresh donor blood (10,000 x g supernatant of sonicated lysate)
Procedure, shortened: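 Enzyme source is lysate from human platelets (10,000 g supernatant). Compound preincubated 5 min at 37° C in Tris pH 7.4 containing 1 μM motapizone and 10 nM of a PDE2 inhibitor. Reaction started with 0.5 μM cGMP ([3H] tracer) and run 15 min; SPA read-out, IC50 by non-linear regression.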

[2] = biological target: T2, PDE4B1 (Homo sapiens, UniProt Q07343); experiment: Inhibition of type 4 phosphodiesterase (PDE4) activity, modified SPA test with recombinant PDE4B1 expressed in SF21 insect cells; format: biochemical; settings: recombinant PDE4B1, 0.5 μM cAMP, read-out: PDE4B1 inhibitory values [measured as −log IC50 (mol/l)] (converted)
T2 construct: made in house; host or cells: SF21 insect cells (baculovirus; pCRBac vector), 1000 x g supernatant of homogenate
T2 sequence (Q07343 whole entry): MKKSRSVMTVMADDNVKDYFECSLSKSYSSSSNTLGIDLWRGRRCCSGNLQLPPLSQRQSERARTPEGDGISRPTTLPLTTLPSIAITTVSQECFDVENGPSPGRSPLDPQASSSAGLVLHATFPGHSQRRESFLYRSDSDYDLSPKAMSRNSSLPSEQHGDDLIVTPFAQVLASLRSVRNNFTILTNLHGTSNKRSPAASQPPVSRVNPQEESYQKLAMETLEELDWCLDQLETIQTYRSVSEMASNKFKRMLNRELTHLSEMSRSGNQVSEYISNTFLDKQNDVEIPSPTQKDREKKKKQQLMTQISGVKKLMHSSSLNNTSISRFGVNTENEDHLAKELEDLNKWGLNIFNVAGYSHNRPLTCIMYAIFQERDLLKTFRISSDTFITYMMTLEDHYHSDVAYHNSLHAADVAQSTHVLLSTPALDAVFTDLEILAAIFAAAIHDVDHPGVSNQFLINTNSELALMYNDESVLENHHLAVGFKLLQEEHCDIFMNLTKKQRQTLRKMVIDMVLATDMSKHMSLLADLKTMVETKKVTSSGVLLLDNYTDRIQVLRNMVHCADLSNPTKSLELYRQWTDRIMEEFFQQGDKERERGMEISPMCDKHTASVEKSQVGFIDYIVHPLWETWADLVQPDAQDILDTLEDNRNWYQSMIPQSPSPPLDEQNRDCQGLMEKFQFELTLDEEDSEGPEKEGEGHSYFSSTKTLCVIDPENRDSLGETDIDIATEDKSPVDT
Experimental: Method for Measuring Inhibition of the Type 4 Phosphodiesterase (PDE4) Activity:
The PDE4B1 (GB no. L20966) was a gift of Prof. M. Conti (Stanford University, USA). It was amplified from the original plasmid (pCMV5) via PCR with primers Rb18 (5′-[…]-3′) and Rb10 (5′-[…]-3′) and cloned into the pCRBac vector (Invitrogen, Groningen, NL).
The recombinant baculovirus was prepared by means of homologous recombination in SF9 insect cells. The expression plasmids were cotransfected with Baculo-Gold DNA (Pharmingen, Hamburg) using a standard protocol (Pharmingen, Hamburg). Wt virus-free recombinant virus supernatants were selected using plaque assay methods. After that, high-titre virus supernatants were prepared by amplifying 3 times. PDE4B1 was expressed in SF21 cells by infecting 2×10^6 cells/ml with an MOI (multiplicity of infection) between 1 and 10 in the serum-free medium Insect Express Sf9-S2 (PAA, Pasching, Austria). The cells were cultured at 28° C. for 48-72 hours, after which they were pelleted for 5-10 min at 1000×g and 4° C.
The SF21 insect cells were resuspended, at a concentration of approx. 10^7 cells/ml, in ice-cold (4° C.) homogenization buffer (20 mM Tris, pH 8.2, containing the following additions: 140 mM NaCl, 3.8 mM KCl, 1 mM EGTA, 1 mM MgCl2, 10 mM (3-mercaptoethanol, 2 mM benzamidine, 0.4 mM Pefablock, 10 μM leupeptin, 10 μM pepstatin A, 5 μM trypsin inhibitor) and disrupted by ultrasonication. The homogenate was then centrifuged for 10 min at 1000×g and the supernatant was stored at −80° C. until subsequent use (see below). The protein content was determined by the Bradford method (BioRad, Munich) using BSA as the standard.
PDE4B1 activity was inhibited by the compounds according to the present subject matter in a modified SPA (scintillation proximity assay) test, supplied by Amersham Biosciences (see procedural instructions “phosphodiesterase [3H]cAMP SPA enzyme assay, code TRKQ 7090”), carried out in 96-well microtitre plates (MTP's). The test volume is 100 μl and contains 20 mM Tris buffer (pH 7.4), 0.1 mg/ml of BSA, 5 mM Mg^2+, 0.5 μM cAMP (including about 50,000 cpm of [3H]cAMP), 1 μl of the respective substance dilution in DMSO and sufficient recombinant PDE (1000×g supernatant, see above) to ensure that 10-20% of the cAMP is converted under the said experimental conditions. […] After a preincubation of 5 min at 37° C., the reaction is started by adding the substrate (cAMP) and the assays are incubated for a further 15 min; after that, they are stopped by adding SPA beads (50 μl). In accordance with the manufacturer's instructions, the SPA beads had previously been resuspended in water, but were then diluted 1:3 (v/v) in water; the diluted solution also contains 3 mM IBMX to ensure a complete PDE activity stop. After the beads have been sedimented (>30 min), the MTP's are analyzed in commercially available luminescence detection devices. The corresponding IC50 values of the compounds for the inhibition of PDE4B1 activity are determined from the concentration-effect curves by means of non-linear regression.

| SMILES | IC50 [1] | IC50 [2] |
| --- | --- | --- |
| COc1ccc(OCC2CC2)c(-c2ncnc3c(C(=O)NC4CCN(C(=O)[C@H](C)O)CC4)c(C)[nH]c23)c1 [Example F42, 4-[2-(Cyclopropylmethoxy)-5-methoxyphenyl]-N-{1-[(2S)-2-hydroxypropanoyl]piperidin-4-yl}-6-methyl-5H-pyrrolo[3,2-d]pyrimidine-7-carboxamide] | < 1 nM | 100 to 1000 nM |
| CCc1ccc(OCC2CC2)c(-c2ncnc3c(C(=O)NC4CCC(NC(=O)C(C)O)CC4)c(C)[nH]c23)c1 (stereo not drawn) [Example F96, 4-[2-(Cyclopropylmethoxy)-5-ethylphenyl]-N-(cis-4-{[(25)-2-hydroxypropanoyl]amino}cyclohexyl)-6-methyl-5H-pyrrolo[3,2-d]pyrimidine-7-carboxamide] | < 1 nM | < 100 nM |
| CC(=O)N[C@H]1CC[C@H](NC(=O)c2c(C)[nH]c3c(-c4cc(F)ccc4OCC4CC4)ncnc23)CC1 [Example E41, N-(trans-4-acetamidocyclohexyl)-4-[2-(cyclopropylmethoxy)-5-fluorophenyl]-6-methyl-5H-pyrrolo[3,2-d]pyrimidine-7-carboxamide] | < 1 nM | < 100 nM |
| CCC(=O)N1CCC(NC(=O)c2c(C)[nH]c3c(-c4cc(CC)ccc4OCC4CC4)ncnc23)CC1 [Example E146, 4-[2-(Cyclopropylmethoxy)-5-ethylphenyl]-6-methyl-N-(1-propanoylpiperidin-4-yl)-5H-pyrrolo[3,2-d]pyrimidine-7-carboxamide] | < 1 nM | 100 to 1000 nM |
| COCC(=O)N[C@H]1CC[C@H](NC(=O)c2c(C)[nH]c3c(-c4cc(C(F)F)ccc4OCC4CC4)ncnc23)C1 [Example P91, 4-[2-(Cyclopropylmethoxy)-5-(difluoromethyl)phenyl]-N-{(1S,3S)-3-[(methoxyacetyl)amino]cyclopentyl}-6-methyl-5H-pyrrolo[3,2-d]pyrimidine-7-carboxamide] | < 1 nM | < 100 nM |
| CC(=O)N[C@H]1CC[C@H](NC(=O)c2c(C)[nH]c3c(-c4cc(C(F)(F)F)ccc4OCC4CC4)ncnc23)CC1 [Example E93, N-[trans-4-(acetylamino)cyclohexyl]-4-[2-(cyclopropylmethoxy)-5-(trifluoromethyl)phenyl]-6-methyl-5H-pyrrolo[3,2-d]pyrimidine-7-carboxamide] | < 1 nM | < 100 nM |
| CC(=O)N1CCC(NC(=O)c2c(C)[nH]c3c(-c4cc(C)ccc4OCC4CC4)ncnc23)CC1 [Example E81, N-(1-Acetylpiperidin-4-yl)-4-[2-(cyclopropylmethoxy)-5-methylphenyl]-6-methyl-5H-pyrrolo[3,2-d]pyrimidine-7-carboxamide] | < 1 nM | < 100 nM |
| COc1ccc(OCC2CC2)c(-c2ncnc3c(C(=O)N[C@H]4CC[C@H](NC(C)=O)CC4)c(C)[nH]c23)c1 [Example E69, N-(trans-4-acetamidocyclohexyl)-4-[2-(cyclopropylmethoxy)-5-methoxyphenyl]-6-methyl-5H-pyrrolo[3,2-d]pyrimidine-7-carboxamide] | < 1 nM | 100 to 1000 nM |
| COc1ccc(OCC2CC2)c(-c2ncnc3c(C(=O)NC4CCN(C(C)=O)CC4)c(C)[nH]c23)c1 [Example E66, N-(1-acetylpiperidin-4-yl)-4-[2-(cyclopropylmethoxy)-5-methoxyphenyl]-6-methyl-5H-pyrrolo[3,2-d]pyrimidine-7-carboxamide] | < 1 nM | 100 to 1000 nM |
| CCC(=O)N[C@H]1CC[C@@H](NC(=O)c2c(C)[nH]c3c(-c4cc(C)ccc4OCC4CC4)ncnc23)CC1 [Example E88, 4-[2-(Cyclopropylmethoxy)-5-methylphenyl]-6-methyl-N-[cis-4-(propanoylamino)cyclohexyl]-5H-pyrrolo[3,2-d]pyrimidine-7-carboxamide] | < 1 nM | < 100 nM |
| CC(=O)N[C@H]1CC[C@H](NC(=O)c2c(C)[nH]c3c(-c4cc(C(F)F)ccc4OCC4CC4)ncnc23)[C@@H](C)C1 (relative stereo) [Example P139, N-[(1S*,2S*,4S*)-4-(Acetylamino)-2-methylcyclohexyl]-4-[2-(cyclopropylmethoxy)-5-(difluoromethyl)phenyl]-6-methyl-5H-pyrrolo[3,2-d]pyrimidine-7-carboxamide] | < 1 nM | < 100 nM |
| CCc1ccc(OCC2CC2)c(-c2ncnc3c(C(=O)N[C@H]4CC[C@@H](NC(C)=O)CC4)c(C)[nH]c23)c1 [Example E151, N-[cis-4-(Acetylamino)cyclohexyl]-4-[2-(cyclopropylmethoxy)-5-ethylphenyl]-6-methyl-5H-pyrrolo[3,2-d]pyrimidine-7-carboxamide] | < 1 nM | 100 to 1000 nM |
| CC(=O)N[C@@H]1CC[C@@H](NC(=O)c2c(C)[nH]c3c(-c4cc(C(F)F)ccc4OCC4CC4)ncnc23)[C@H](F)C1 (relative stereo) [Example P159, N-[(1R*,2R*,4R*)-4-(Acetylamino)-2-fluorocyclohexyl]-4-[2-(cyclopropylmethoxy)-5-(difluoromethyl)phenyl]-6-methyl-5H-pyrrolo[3,2-d]pyrimidine-7-carboxamide] | < 1 nM | < 100 nM |
| Cc1ccc(OCC2CC2)c(-c2ncnc3c(C(=O)N[C@H]4CCC[C@H]4O)c(C)[nH]c23)c1 [Example E177, 4-[2-(Cyclopropylmethoxy)-5-methylphenyl]-N-[(1S,2R)-2-hydroxycyclopentyl]-6-methyl-5H-pyrrolo[3,2-d]pyrimidine-7-carboxamide] | 1 to 10 nM | 100 to 1000 nM |
| Cc1[nH]c2c(-c3cc(C(F)(F)F)ccc3OCC3CC3)ncnc2c1C(=O)N[C@H]1CC[C@H](NC(=O)[C@H](C)O)CC1 [Example F60, 4-[2-(Cyclopropylmethoxy)-5-(trifluoromethyl)phenyl]-N-(trans-4-{[(2S)-2-hydroxypropanoyl]amino}cyclohexyl)-6-methyl-5H-pyrrolo[3,2-d]pyrimidine-7-carboxamide] | < 1 nM | < 100 nM |
| COc1ccc(OCC2CC2)c(-c2ncnc3c(C(=O)N[C@H]4CC[C@@H](NC(=O)[C@H](C)O)CC4)c(C)[nH]c23)c1 [Example F46, 4-[2-(cyclopropylmethoxy)-5-methoxyphenyl]-N-(cis-4-{[(2S)-2-hydroxypropanoyl]amino}cyclohexyl)-6-methyl-5H-pyrrolo[3,2-d]pyrimidine-7-carboxamide] | < 1 nM | 100 to 1000 nM |
| CCC(=O)N[C@H]1CC[C@H](NC(=O)c2c(C)[nH]c3c(-c4cc(C(F)F)ccc4OCC4CC4)ncnc23)[C@H](F)C1 (relative stereo) [Example P170, 4-[2-(Cyclopropylmethoxy)-5-(difluoromethyl)phenyl]-N-[(1S*,2R*,4S*)-2-fluoro-4-(propanoylamino)cyclohexyl]-6-methyl-5H-pyrrolo[3,2-d]pyrimidine-7-carboxamide] | < 1 nM | < 100 nM |
| CCc1ccc(OCC2CC2)c(-c2ncnc3c(C(=O)NC4CCN(C(=O)COC)CC4)c(C)[nH]c23)c1 [Example E147, 4-[2-(Cyclopropylmethoxy)-5-ethylphenyl]-N-[1-(methoxyacetyl)piperidin-4-yl]-6-methyl-5H-pyrrolo[3,2-d]pyrimidine-7-carboxamide] | < 1 nM | 100 to 1000 nM |
| CCC(=O)N[C@H]1CC[C@@H](NC(=O)c2c(C)[nH]c3c(-c4cc(OC)ccc4OCC4CC4)ncnc23)CC1 [Example E73, 4-[2-(Cyclopropylmethoxy)-5-methoxyphenyl]-6-methyl-N-[cis-4-(propionylamino)cyclohexyl]-5H-pyrrolo[3,2-d]pyrimidine-7-carboxamide] | < 1 nM | 100 to 1000 nM |

Reference: patent US9376442B2, “Methylpyrrolopyrimidinecarboxamides” (Takeda GmbH, priority 2009, dated 2016)
